Results on 2 molecules are retold here after patent US4990613A, “(1R,5S,6S)-2-[(6,7-dih ydro-5H-pyrazolo[1,2-a][1,2,4]triazolium-6-yl)]thio-6-[R-1-hydroxyethyl]- 1-methyl-carbapenem-3-carboxylate and intermediate therefor” (Lederle (Japan), Ltd., priority 1987, dated 1991).

In brackets after ≈: the same amount, converted by molar mass. Read-outs that look alike come from different tables or passages of the source.

By MIC is commonly meant the least concentration at which growth counts as inhibited.

In one series the test system is Escherichia coli GN 5482. Description: Antibacterial activity against clinically isolated β-lactamase producing strains. It is filed as cell-based. As to conditions: Escherichia coli, GN5482; cephalosporinase producing strain, 18 to 20 hours; read-out: MIC. As for the experimental part:
(§1) A solution of a cephalosporinase producing strain stored by Episome Research Institute, which was prepared by incubating the strain in a sensitivity test broth (STB; product of Nissui K.K.) for 18 hours, was diluted with a fresh STB solution to contain 10^5 cells per milliliter and the diluted solution was then inoculated as spots with a microplanter on a sensitivity disk agar-N (SDA; product of Nissui K.K.) containing a test compound. The disk agar was then incubated for 18 to 20 hours. A minimum inhibitory concentration was determined as a minimum concentration in which the test microorganism had no longer grown after a 18 to 20 hour incubation.

Series [1] deals with Escherichia coli No. 1501. Described as above. Type of series: cell-based. The following applies: Escherichia coli, NO.1501; cephalosporinase producing strain, 18 to 20 hours; read-out: MIC. How it is done:
as §1

In series [2] the test system is Providencia rettgeri GN 4430. The series is described as above. Type of series: cell-based. As to conditions: Providencia rettgeri, GN4430; cephalosporinase producing strain, 18 to 20 hours; read-out: MIC. How it is done: as §1
The next series relates to Escherichia coli No. 96. The series is described as above. As to conditions: Escherichia coli, NO.96; cephalosporinase producing strain, 18 to 20 hours; read-out: MIC. Type of series: cell-based. As for the experimental part: as §1
Another series deals with Serratia marcescens L-65. Described as above. It is filed as cell-based. The following applies: Serratia marcescens, L65; cephalosporinase producing strain, 18 to 20 hours; read-out: MIC. As for the experimental part:
as §1

A further series concerns Proteus vulgaris GN 4413. The series is described as above. Type of series: cell-based. As to conditions: Proteus vulgaris, GN4413. As for the experimental part:
as §1

The test system of series [3] is Enterobacter cloacae GN 5797. The series is described as above. Type of series: cell-based. As to conditions: Enterobacter cloacae, GN5797; cephalosporinase producing strain, 18 to 20 hours; read-out: MIC. As for the experimental part: as §1
Series [4] concerns Citrobactor freundii GN 7391. The description is as above. Type of series: cell-based. The following applies: cephalosporinase producing strain, 18 to 20 hours; read-out: MIC. How it is done:
as §1

The subject of series [5] is Staphylococcus aureus FDA 209P JC-1. The series is described as follows: Antibacterial test, agar plate dilution method. As to conditions: Staphylococcus aureus, FDA209P, 18 h.
The next series concerns Salmonella typhi 901. Description: Antibacterial test, agar plate dilution method. As to conditions: Salmonella enterica, TYPHI, 18 h. It is filed as cell-based.
Series [6] concerns Swine Kidney Dehydropeptidase-I (DHP-I). The series is described as follows: Stability of test compounds against DHP-I by HPLC. It is filed as in vitro ADME. As for the experimental part:
(§2) The swine kidney (8 kg) was homogenized and an enzyme protein was allowed to precipitate. After a connective lipid was removed with acetone, the resultant material was made soluble by treatment with butanol and purified in the order by the ammonium sulfate fraction method, thereby producing DPH-I enzyme from a 75% ammonium sulfate fraction.
(§3) The DHP-I enzyme was then adjusted to give an enzyme concentration of 25 mg/10 ml (phosphate buffer, pH 7.1), and divided into 1 ml portions. The portions were frozen and stored at -40° C. or less until use.
As a test compound was used the compound (15) obtained in Example 6 that follows.
The test compounds was adjusted in situ to give the concentration of […] with a 50 mM sodium phosphate buffer solution (pH=7.1).
(§4) As control compounds were employed glycyl dehydrophenylalanine (Gl-dh-Ph) and imipenem, and they were adjusted in situ each to give the concentration of 177 μM with the same sodium phosphate buffer solution.
The test compound according to the present invention and the control compounds have been treated in substantially the same manner as (1) above. The incubation, however, was conducted at 37° C. for 4.5 hours or for 24 hours. A degree of the hydrolysis of the compounds each after the test periods of time was measured by the HPLC method.

The test system is the same in series [7]. Description: Hydrolysis activity against DHP-I enzyme substrate by late assay. It is filed as in vitro ADME. As to conditions: final substrate concentration 100 μM, 10 minutes, pH 7.1. As for the experimental part: as §2, §3, §4
To 1.2 ml of a 50 mM sodium phosphate buffer solution (substrate) containing 177 μM of each of Gh-dh-Ph and imipenem as the control compounds was added 0.2 ml of the DHP-I enzyme solution (25 mg/10 ml) prepared above in the final substrate concentration of 100 μM. The solution was then incubated at […] for 10 minutes. An initial velocity of hydrolysis of the substrate was measured from a decrease in absorbency at a particular λmax of each of the substrates.
A blank test was conducted in substantially the same manner as above by adding 0.2 ml of the sodium phosphate buffer solution (pH 7.1) to 1.2 ml of the above substrate.

Series [8] deals with C. freundii resistant strains. The series is described as follows: Sensitivity test against clinical isolates, C. freundii resistant strains. As to conditions: CFIX/CTX resistant strains. It is filed as cell-based. How it is done:
Cefixime (CFIX) (50 to >100 μg/ml)
Cefotaxime (CTX) (50 to >100 μg/ml)
The tests were carried out in the same manner as described above Test 1.

Another series has as its system Proteus vulgaris OX-19. Description: Antibacterial test, agar plate dilution method. As to conditions: Proteus vulgaris, OX19, 18 h.
A further series concerns Proteus vulgaris HX-19. Description: Antibacterial test, agar plate dilution method. As to conditions: Proteus vulgaris, HX19, 18 h.
Series [9] deals with P. aeruginosa resistant strains. Description: Sensitivity test against clinical isolates, P. aeruginosa resistant strains. Type of series: cell-based. As to conditions: 54 resistant strains. As for the experimental part: It is noted here that the 54 strains have been chosen because there have been the strains in duplicate with the agents. ______________________________________ Ceftazidime (CAZ) (25 to 100 μg/ml) 21 strains Cefsulodine (CFS) (25 to >100 μg/ml) 23 strains Piperacilin (PIPC) (25 to >100 μg/ml) 15 strains Gentamycin (GM) (25 to >100 μg/ml) 21 strains Amikacin (AMK) (25 to >100 μg/ml) 26 strains Ofloxacin (OFLX) (25 to >100 μg/ml) 4 strains ______________________________________
A minimum inhibitory concentration (MIC) was determined in substantially the same manner as the test procedures II above using the 54 strains of P. aeruginosa having an anti-Pseudomonas resistance.

The test system of series [10] is Proteus mirabilis IFO3849. The series is described as follows: Antibacterial test, agar plate dilution method. The following applies: Proteus mirabilis, IFO3849, 18 h.

For `Cc1nnc(SCC2=C(C(=O)O)N3C(=O)[C@@H](NC(=O)Cn4cnnn4)[C@H]3SC2)s1` [CEZ], the MIC with Escherichia coli GN 5482 is 0.78 µg/mL (≈ 1.72 µM); in series [1], 0.2 µg/mL (≈ 0.44 µM); in series [2], 0.2 µg/mL (≈ 0.44 µM); in the series on Escherichia coli No. 96 it was 0.78 µg/mL (≈ 1.72 µM); in the series on Serratia marcescens L-65 it was 0.2 µg/mL (≈ 0.44 µM); in the series with Proteus vulgaris GN 4413 (cephalosporinase producing strain, 18 to 20 hours, read-out: MIC) it was 0.2 µg/mL (≈ 0.44 µM). Also, the MIC in series [3] is 0.39 µg/mL (≈ 0.858 µM); in series [4], above 100 µg/mL; in series [5], 0.2 µg/mL (≈ 0.44 µM); against Salmonella typhi 901, 0.78 µg/mL (≈ 1.72 µM).

`C[C@@H](O)[C@H]1C(=O)N2C(C(=O)O)=C(SCCN=CN)C[C@H]12` [Imipenem]: the MIC came out at 0.1 µg/mL (≈ 0.334 µM) with Escherichia coli GN 5482; 0.1 µg/mL (≈ 0.334 µM) in series [1]; 0.39 µg/mL (≈ 1.3 µM) in series [2]; 0.1 µg/mL (≈ 0.334 µM) with Escherichia coli No. 96; 0.39 µg/mL (≈ 1.3 µM) with Serratia marcescens L-65; 6.25 µg/mL (≈ 20.9 µM) in the series on Proteus vulgaris GN 4413. For the same molecule, the MIC in series [3] worked out at 0.39 µg/mL (≈ 1.3 µM); in series [4], 0.78 µg/mL (≈ 2.61 µM); in series [5], 0.025 µg/mL (≈ 0.0835 µM); with Salmonella typhi 901 it was 0.1 µg/mL (≈ 0.334 µM); against Proteus vulgaris OX-19 it was 0.78 µg/mL (≈ 2.61 µM); in the series with Proteus vulgaris HX-19, 0.78 µg/mL (≈ 2.61 µM). This molecule came in with an MIC in [10] of 6.25 µg/mL (≈ 20.9 µM). The “Degree of hydrolysis by DHP-I” value in series [6] (37° C. 4.5 hours, substrate concentration 100 μM, HPLC) was determined as 77.6 µM. Further, the “Degree of hydrolysis by DHP-I (in words)” value in [6] (after 24 hours at 37° C., footnote * of Table 3) was “imipenem has been decomposed and nothing remained was detected”. Moreover, the “initial velocity of hydrolysis against DHP-I” value in [7] amounted to 0.56 µM/min. The “test microorganisms whose growth is inhibited” value in series [8] (concentration of 0.78 μg/ml) is recorded as “approximately 90%”; in [8] (concentration of 1.56 μg/ml) it was “all the test microorganisms”; in series [9] (concentration of 12.5 μg/ml), “all the test microorganism”; in [9] (concentration of […]) it was “approximately 98%”.
